Source: patent US11051515B2, “3-acyl-benzamides and their use as herbicides” (Bayer Aktiengesellschaft, priority 2017, dated 2021)

What was measured:
[1] = test system: ALOMY; assay: Pre-emergence action against ALOMY; format: in vivo, Alopecurus myosuroides; details: dosage 320 g/ha, pre-emergence, scored visually after 3 weeks vs untreated controls, 100% = plants have died, 0% = like control plants
Summary of the method: (§1)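 Seeds sown in sandy loam in wood-fiber pots and covered with soil. Greenhouse growth; visual damage scored after 3 weeks versus untreated controls (100% = dead, 0% = like control).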

[2] = test system: CYPES; assay: Pre-emergence action against CYPES; format: in vivo, Cyperus esculentus; details: pre-emergence, dosage 320 g/ha, scored visually after 3 weeks vs untreated controls
Summary of the method: as §1

[3] = test system: ECHCG; assay: Pre-emergence action against ECHCG; format: in vivo, Echinochloa crus-galli; details: pre-emergence, dosage 320 g/ha, scored visually after 3 weeks vs untreated controls
Summary of the method: as §1

[4] = test system: LOLMU; assay: Pre-emergence action against LOLMU; format: in vivo, Lolium multiflorum; details: dosage 320 g/ha, scored visually after 3 weeks vs untreated controls
Source text: Seeds of monocotyledonous and dicotyledonous weed plants and crop plants are laid out in sandy loam soil in wood-fiber pots and covered with soil. The compounds of the invention, formulated in the form of wettable powders (WP) or as emulsion concentrates (EC), are then applied to the surface of the covering soil in the form of an aqueous suspension or emulsion at a water application rate equating to […], with addition of 0.2% wetting agent. After the treatment, the pots are placed in a greenhouse and kept under good growth conditions for the trial plants. The damage to the test plants is scored visually after a test period of 3 weeks by comparison with untreated controls (herbicidal activity in percent (%): 100% activity=the plants have died, 0% activity=like control plants).

[5] = test system: SETVI; assay: Pre-emergence action against SETVI; format: in vivo, Setaria viridis; details: pre-emergence, dosage 320 g/ha, scored visually after 3 weeks vs untreated controls
Summary of the method: as §1

[6] = test system: ABUTH; assay: Pre-emergence action against ABUTH; format: in vivo, Abutilon theophrasti; details: pre-emergence, dosage 320 g/ha, scored visually after 3 weeks vs untreated controls
Summary of the method: as §1

[7] = test system: AMARE; assay: Pre-emergence action against AMARE; format: in vivo, Amaranthus retroflexus; details: pre-emergence, dosage 320 g/ha, scored visually after 3 weeks vs untreated controls
Summary of the method: as §1

[8] = test system: MATIN; assay: Pre-emergence action against MATIN; format: in vivo, Matricaria inodora; details: Dosage 320 g/ha, pre-emergence
Summary of the method: as §1

[9] = test system: POLCO; assay: Pre-emergence action against POLCO; format: in vivo, Polygonum convolvulus; details: Dosage 320 g/ha, pre-emergence
Summary of the method: as §1

[10] = test system: STEME; assay: Pre-emergence action against STEME; format: in vivo, Stellaria media; details: Dosage 320 g/ha, pre-emergence
Summary of the method: as §1

[11] = test system: VIOTR; assay: Pre-emergence action against VIOTR; format: in vivo, Viola tricolor; details: Dosage 320 g/ha, pre-emergence
Summary of the method: as §1

[12] = test system: VERPE; assay: Pre-emergence action against VERPE; format: in vivo, Veronica persica; details: Dosage 320 g/ha, pre-emergence
Summary of the method: as §1

[13] = test system: CYPES; assay: Post-emergence action against CYPES; format: in vivo, Cyperus esculentus; details: post-emergence, dosage 80 g/ha, visual assessment about 3 weeks after treatment vs untreated controls
Summary of the method: (§2)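 Post-emergence foliar spray on greenhouse plants at the one-leaf stage, using wettable-powder or emulsion-concentrate formulations in water (600 to […], plus 0.2% wetting agent). Damage scored by eye roughly 3 weeks later against untreated plants: 0% = like control, 100% = dead.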

[14] = test system: ECHCG; assay: Post-emergence action against ECHCG; format: in vivo, Echinochloa crus-galli; details: post-emergence, dosage 80 g/ha, visual assessment about 3 weeks after treatment vs untreated controls
Summary of the method: as §2

[15] = test system: SETVI; assay: Post-emergence action against SETVI; format: in vivo, Setaria viridis; details: post-emergence, dosage 80 g/ha, visual assessment about 3 weeks after treatment vs untreated controls
Summary of the method: as §2

[16] = test system: ABUTH; assay: Post-emergence action against ABUTH; format: in vivo, Abutilon theophrasti; details: post-emergence, dosage 80 g/ha, visual assessment about 3 weeks after treatment vs untreated controls
Summary of the method: as §2

[17] = test system: AMARE; assay: Post-emergence action against AMARE; format: in vivo, Amaranthus retroflexus; details: post-emergence, dosage 80 g/ha, visual assessment about 3 weeks after treatment vs untreated controls
Summary of the method: as §2

[18] = test system: MATIN; assay: Post-emergence action against MATIN; format: in vivo, Matricaria inodora; details: post-emergence, dosage 80 g/ha, visual assessment about 3 weeks after treatment vs untreated controls
Summary of the method: as §2

[19] = test system: PHBPU; assay: Post-emergence action against PHBPU; format: in vivo, Pharbitis purpurea; details: post-emergence, dosage 80 g/ha
Summary of the method: as §2

[20] = test system: POLCO; assay: Post-emergence action against POLCO; format: in vivo, Polygonum convolvulus; details: post-emergence, dosage 80 g/ha
Summary of the method: as §2

[21] = test system: STEME; assay: Post-emergence action against STEME; format: in vivo, Stellaria media; details: post-emergence, dosage 80 g/ha
Summary of the method: as §2

[22] = test system: VIOTR; assay: Post-emergence action against VIOTR; format: in vivo, Viola tricolor; details: post-emergence, dosage 80 g/ha
Summary of the method: as §2

[23] = test system: VERPE; assay: Post-emergence action against VERPE; format: in vivo, Veronica persica; details: dosage 80 g/ha
Summary of the method: as §2

[24] = test system: AVEFA; assay: Pre-emergence action against AVEFA; format: in vivo, Avena fatua; details: Avena fatua, 504 h, dosage 320 g/ha, scored visually after 3 weeks vs untreated controls, read-out: Pre-emergence action against AVEFA (herbicidal activity)
Summary of the method: as §1

CCn1nnnc1NC(=O)c1ccc(C(F)(F)F)c(C(C)=O)c1OC [2-48]
80: Post-emergence action against POLCO [20] | Post-emergence action against VERPE [23]
90%: Pre-emergence action against ALOMY (herbicidal activity in percent) [1] | Pre-emergence action against POLCO [9] | Pre-emergence action against STEME [10] | Post-emergence action against ECHCG (herbicidal action in percent) [14] | Post-emergence action against AMARE (herbicidal action in percent) [17]
100%: Pre-emergence action against CYPES (herbicidal activity) [2] | Pre-emergence action against ECHCG (herbicidal activity) [3] | SETVI (Table B8, pre-emergence herbicidal activity) [5] | Pre-emergence action against ABUTH (herbicidal activity) [6] | Pre-emergence action against AMARE (herbicidal activity) [7] | Pre-emergence action against MATIN [8] | Pre-emergence action against VIOTR [11] | Pre-emergence action against VERPE [12] | Post-emergence action against CYPES (herbicidal action in percent) [13] | Post-emergence action against ABUTH (herbicidal action in percent) [16] | Post-emergence action against MATIN (herbicidal action in percent) [18]
80%: Pre-emergence action against LOLMU (herbicidal activity) [4] | Post-emergence action against SETVI (herbicidal action in percent) [15]
100: Post-emergence action against PHBPU [19] | Post-emergence action against STEME [21] | Post-emergence action against VIOTR [22]

COc1c(C(=O)Nc2nnnn2C)ccc(C(F)(F)F)c1C(C)=O [1-48]
100%: pest or weed control at 320 g/ha ([3]; Echinochloa crus-galli, 504 h, read-out: Pre-emergence action against ECHCG (herbicidal activity)) | pest or weed control at 320 g/ha ([5]; Setaria viridis, 504 h, read-out: SETVI (Table B8, pre-emergence herbicidal activity)) | pest or weed control at 320 g/ha ([6]; Abutilon theophrasti, 504 h, read-out: Pre-emergence action against ABUTH (herbicidal activity)) | pest or weed control at 320 g/ha ([7]; Amaranthus retroflexus, 504 h, read-out: Pre-emergence action against AMARE (herbicidal activity)) | pest or weed control at 320 g/ha ([8]; Tripleurospermum inodorum, 504 h) | pest or weed control at 320 g/ha ([11]; Viola tricolor, 504 h) | pest or weed control at 320 g/ha ([12]; Veronica persica, 504 h) | pest or weed control at 80 g/ha ([13]; Cyperus esculentus, 504 h, read-out: Post-emergence action against CYPES (herbicidal action in percent)) | pest or weed control at 80 g/ha ([16]; Abutilon theophrasti, 504 h, read-out: Post-emergence action against ABUTH (herbicidal action in percent)) | pest or weed control at 80 g/ha ([17]; Amaranthus retroflexus, 504 h, read-out: Post-emergence action against AMARE (herbicidal action in percent)) | pest or weed control at 80 g/ha ([18]; Tripleurospermum inodorum, 504 h, read-out: Post-emergence action against MATIN (herbicidal action in percent)) | pest or weed control at 80 g/ha ([21]; Stellaria media, 504 h) | pest or weed control at 80 g/ha ([22]; Viola tricolor, 504 h)
90%: pest or weed control at 320 g/ha ([1]; Alopecurus myosuroides, 504 h, read-out: Pre-emergence action against ALOMY (herbicidal activity in percent)) | pest or weed control at 320 g/ha [24] | pest or weed control at 320 g/ha ([2]; Cyperus esculentus, 504 h, read-out: Pre-emergence action against CYPES (herbicidal activity)) | pest or weed control at 320 g/ha ([9]; Fallopia convolvulus, 504 h) | pest or weed control at 320 g/ha ([10]; Stellaria media, 504 h) | pest or weed control at 80 g/ha ([14]; Echinochloa crus-galli, 504 h, read-out: Post-emergence action against ECHCG (herbicidal action in percent)) | pest or weed control at 80 g/ha ([19]; Ipomoea purpurea, 504 h) | pest or weed control at 80 g/ha ([20]; Fallopia convolvulus, 504 h)
80%: pest or weed control at 320 g/ha ([4]; Lolium multiflorum, 504 h, read-out: Pre-emergence action against LOLMU (herbicidal activity)) | pest or weed control at 80 g/ha ([15]; Setaria viridis, 504 h, read-out: Post-emergence action against SETVI (herbicidal action in percent)) | pest or weed control at 80 g/ha ([23]; Veronica persica, 504 h)
